# Test results as given in patent US11931424B2, “Combination MCL-1 inhibitors with anti-body drug conjugates” (Gilead Sciences, Inc., priority 2021, dated 2024).
# System: panel of breast cancer cell lines
# Assay: Compound A with targeted agents and chemotherapies, 72-hour in vitro proliferation assays
# Type: cell-based
# Conditions: 72-hour proliferation
# [1] = AU565 cell line, compound A × partner
# [2] = BT-20 cell line, compound A × partner
# [3] = BT-474 cell line, compound A × partner
# [4] = BT-549 cell line, compound A × partner
# [5] = CAL-51 cell line, compound A × partner
# [6] = CAL-85-1 cell line, compound A × partner
# [7] = CAL-120 cell line, compound A × partner
# [8] = CAL-148 cell line, compound A × partner
# [9] = CAMA-1 cell line, compound A × partner
# [10] = DU-4475 cell line, compound A × partner
# [11] = EVSA-T cell line, compound A × partner
# [12] = MCF7 cells, Compound A × partner agent
# [13] = MDA-MB-175-VII cells, Compound A × partner agent
# [14] = MDA-MB-231 cells, Compound A × partner agent
# [15] = MDA-MB-361 cells, Compound A × partner agent
# [16] = MDA-MB-436 cells, Compound A × partner agent
# [17] = MDA-MB-453 cells, Compound A × partner agent
# [18] = MDA-MB-468 cells, Compound A × partner agent
# [19] = SK-BR-3 cells, Compound A × partner agent
# [20] = SUM159PT cells, combination of compound A with the named agent
# [21] = T47D cells, combination of compound A with the named agent
# [22] = ZR-75-1 cells, combination of compound A with the named agent
# [23] = ZR-75-30 cells, combination of compound A with the named agent
smiles,measurement,setting,value
CO[C@H]1C[C@@H]2CC[C@@H](C)[C@@](O)(O2)C(=O)C(=O)N2CCCC[C@H]2C(=O)O[C@H]([C@H](C)C[C@@H]2CC[C@@H](OCCO)[C@H](OC)C2)CC(=O)[C@H](C)/C=C(\C)[C@@H](O)[C@@H](OC)C(=O)[C@H](C)C[C@H](C)/C=C/C=C/C=C/1C [Everolimus],Bliss Volume,[1],5.68
same,HSA volume,[1],2.64
same,Loewe Volume,[1],3.01
same,Synergy Score,[1],3.02
same,Bliss Volume,[2],8.37
same,HSA volume,[2],8.23
same,Loewe Volume,[2],7.02
same,Synergy Score,[2],11.08
same,Bliss Volume,[3],3.26
same,HSA volume,[3],−1.26
same,Loewe Volume,[3],−2.71
same,Synergy Score,[3],2.41
same,Bliss Volume,[4],5.93
same,HSA volume,[4],8.22
same,Loewe Volume,[4],7.87
same,Synergy Score,[4],7.35
same,Bliss Volume,[5],−2.55
same,HSA volume,[5],0.45
same,Loewe Volume,[5],0.41
same,Synergy Score,[5],1.34
same,Bliss Volume,[6],10.37
same,HSA volume,[6],14.41
same,Loewe Volume,[6],13.60
same,Synergy Score,[6],16.26
same,Bliss Volume,[7],−2.79
same,HSA volume,[7],−1.61
same,Loewe Volume,[7],−1.62
same,Synergy Score,[7],0.53
same,Bliss Volume,[8],5.67
same,HSA volume,[8],9.58
same,Loewe Volume,[8],8.56
same,Synergy Score,[8],18.16
same,Bliss Volume,[9],10.06
same,HSA volume,[9],2.71
same,Loewe Volume,[9],3.20
same,Synergy Score,[9],7.90
same,Bliss Volume,[10],4.29
same,HSA volume,[10],1.94
same,Loewe Volume,[10],0.97
same,Synergy Score,[10],2.43
same,Bliss Volume,[11],10.56
same,HSA volume,[11],−0.76
same,Loewe Volume,[11],−1.22
same,Synergy Score,[11],1.85
same,Bliss Volume,"HCC38, compound A × partner",−6.70
same,HSA volume,"HCC38, compound A × partner",−1.96
same,Loewe Volume,"HCC38, compound A × partner",−2.56
same,Synergy Score,"HCC38, compound A × partner",2.18
same,Bliss Volume,"HCC70, compound A × partner",9.56
same,HSA volume,"HCC70, compound A × partner",8.83
same,Loewe Volume,"HCC70, compound A × partner",6.84
same,Synergy Score,"HCC70, compound A × partner",11.30
same,Bliss Volume,"HCC1143, compound A × partner",8.68
same,HSA volume,"HCC1143, compound A × partner",8.45
same,Loewe Volume,"HCC1143, compound A × partner",10.21
same,Synergy Score,"HCC1143, compound A × partner",9.36
same,Bliss Volume,"HCC1569, compound A × partner",2.35
same,HSA volume,"HCC1569, compound A × partner",5.10
same,Loewe Volume,"HCC1569, compound A × partner",4.65
same,Synergy Score,"HCC1569, compound A × partner",3.45
same,Bliss Volume,"HCC1806, compound A × partner",5.19
same,HSA volume,"HCC1806, compound A × partner",2.88
same,Loewe Volume,"HCC1806, compound A × partner",5.59
same,Synergy Score,"HCC1806, compound A × partner",2.52
same,Bliss Volume,"HCC1937, compound A × partner",1.96
same,HSA volume,"HCC1937, compound A × partner",3.68
same,Loewe Volume,"HCC1937, compound A × partner",4.63
same,Synergy Score,"HCC1937, compound A × partner",4.89
same,Bliss Volume,"HCC1954, compound A × partner",20.04
same,HSA volume,"HCC1954, compound A × partner",23.41
same,Loewe Volume,"HCC1954, compound A × partner",21.71
same,Synergy Score,"HCC1954, compound A × partner",36.09
same,Bliss Volume,"HCC2218, compound A × partner",−0.77
same,HSA volume,"HCC2218, compound A × partner",−0.63
same,Loewe Volume,"HCC2218, compound A × partner",−2.03
same,Synergy Score,"HCC2218, compound A × partner",3.37
same,Bliss Volume,"HDQ-P1, compound A × partner",6.97
same,HSA volume,"HDQ-P1, compound A × partner",−1.39
same,Loewe Volume,"HDQ-P1, compound A × partner",6.48
same,Synergy Score,"HDQ-P1, compound A × partner",2.04
same,Bliss Volume,"HMC-1-8, compound A × partner",9.19
same,HSA volume,"HMC-1-8, compound A × partner",5.60
same,Loewe Volume,"HMC-1-8, compound A × partner",5.97
same,Synergy Score,"HMC-1-8, compound A × partner",9.41
same,Bliss Volume,"JIMT-1, compound A × partner",5.29
same,HSA volume,"JIMT-1, compound A × partner",2.41
same,Loewe Volume,"JIMT-1, compound A × partner",1.96
same,Synergy Score,"JIMT-1, compound A × partner",1.56
same,Best CI,"KPL-1, compound A × partner",0.45
same,Best CI Level,"KPL-1, compound A × partner",95
same,Bliss Volume,"KPL-1, compound A × partner",2.85
same,HSA volume,"KPL-1, compound A × partner",5.14
same,Loewe Volume,"KPL-1, compound A × partner",4.93
same,Synergy Score,"KPL-1, compound A × partner",6.00
same,Bliss Volume,[12],6.88
same,HSA volume,[12],7.73
same,Loewe Volume,[12],6.93
same,Synergy Score,[12],9.72
same,Bliss Volume,[13],9.10
same,HSA volume,[13],4.72
same,Loewe Volume,[13],4.62
same,Synergy Score,[13],10.26
same,Bliss Volume,[14],0.30
same,HSA volume,[14],2.64
same,Loewe Volume,[14],3.33
same,Synergy Score,[14],2.06
same,Bliss Volume,[15],5.72
same,HSA volume,[15],4.93
same,Loewe Volume,[15],3.91
same,Synergy Score,[15],8.70
same,Bliss Volume,[16],2.45
same,HSA volume,[16],4.01
same,Loewe Volume,[16],3.66
same,Synergy Score,[16],2.25
same,Bliss Volume,[17],3.87
same,HSA volume,[17],0.04
same,Loewe Volume,[17],−0.98
same,Synergy Score,[17],5.75
same,Bliss Volume,[18],11.63
same,HSA volume,[18],9.14
same,Loewe Volume,[18],7.97
same,Synergy Score,[18],15.60
same,Bliss Volume,[19],7.76
same,HSA volume,[19],3.46
same,Loewe Volume,[19],2.55
same,Synergy Score,[19],4.58
same,Bliss Volume,[20],0.61
same,HSA volume,[20],1.27
same,Loewe Volume,[20],0.66
same,Synergy Score,[20],1.12
same,Bliss Volume,[21],−0.21
same,HSA volume,[21],2.87
same,Loewe Volume,[21],2.69
same,Synergy Score,[21],3.70
same,Bliss Volume,[22],3.52
same,HSA volume,[22],5.12
same,Loewe Volume,[22],4.67
same,Synergy Score,[22],5.68
same,Bliss Volume,[23],3.82
same,HSA volume,[23],4.76
same,Loewe Volume,[23],4.25
same,Synergy Score,[23],7.22
